Measured values published in ChEMBL document CHEMBL3734669, “Δ(5)-Cholenoyl-amino acids as selective and orally available antagonists of the Eph-ephrin system” (Eur J Med Chem, 2015).
Values after ≈ are worked out from the molar mass of the structure shown. One block for each compound: values may come before it. Active and inactive are the calls of the source. No cut-off for these calls is given here.

Assays:
Ephrin type-A receptor 2 [1] = target: T1, Ephrin type-A receptor 2 (Homo sapiens, UniProt P29317); experiment: Displacement of biotinylated-ephrin-A1 from EphA2 receptor (unknown origin) up to 100 uM preincubated for 1 hr followed by biotinylated-ephrin-A1-Fc addition measured after 4 hrs by ELISA
Ephrin type-A receptor 2 [2] = target: T1, Ephrin type-A receptor 2; experiment: Displacement of biotinylated-ephrin-A1-Fc from EphA2-Fc receptor (unknown origin) preincubated for 1 hr followed by biotinylated-ephrin-A1-Fc addition measured after 4 hrs by ELISA
[3] = Cytotoxicity against human PC3 cells at 10 to 30 uM after 2 hrs by LDH release assay; type: cell-based; conditions: pc-3, 2 h
[4] = Metabolic stability in mouse liver S9 fractions assessed as compound remaining at 1 uM after 1 hr by HPLC-ESI-MS/MS analysis in presence of NADPH regenerating system; type: ADME, subcellular, Liver S9 fraction; conditions: read-out: Stability
[5] = Kinetic solubility of the compound in NaCl solution at 25 deg C after 2 hrs by HPLC-ESI-MS/MS analysis; type: physicochemical; conditions: read-out: Kinetic_solubility
[6] = target: T2, G-protein coupled bile acid receptor 1 (Homo sapiens, UniProt Q8TDU6); experiment: Agonist activity at TGR5 (unknown origin) assessed as cAMP level; type: functional
T2 sequence (Q8TDU6 whole entry): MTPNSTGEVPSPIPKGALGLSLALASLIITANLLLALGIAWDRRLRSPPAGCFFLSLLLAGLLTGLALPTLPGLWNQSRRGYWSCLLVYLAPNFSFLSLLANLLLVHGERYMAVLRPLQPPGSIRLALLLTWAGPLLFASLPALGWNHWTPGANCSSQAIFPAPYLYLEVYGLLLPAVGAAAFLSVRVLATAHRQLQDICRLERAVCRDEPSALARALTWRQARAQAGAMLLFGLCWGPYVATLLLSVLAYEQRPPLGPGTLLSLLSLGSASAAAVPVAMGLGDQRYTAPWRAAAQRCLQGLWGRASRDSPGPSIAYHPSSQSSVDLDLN

[7] = n-octanol-water distribution coefficient, log D of the compound at pH 7.4 after 4 hrs by shake-flask method; type: physicochemical
[8] = Cmax in mouse at 30 mg/kg, po administered as single dose by HPLC-MS analysis; type: ADME, organism-based; set-up: dose 30 mg/kg, route oral; conditions: in vivo
[9] = Metabolic stability in mouse plasma assessed as compound remaining at 1 uM after 24 hrs by HPLC-ESI-MS/MS analysis; type: ADME, cell-free; conditions: read-out: Stability
[10] = target: T3, Nuclear receptor subfamily 1 group I member 2 (Homo sapiens, UniProt O75469); experiment: Activation of human recombinant PXR up to 10 uM by alphascreen method
T3 sequence (O75469 whole entry): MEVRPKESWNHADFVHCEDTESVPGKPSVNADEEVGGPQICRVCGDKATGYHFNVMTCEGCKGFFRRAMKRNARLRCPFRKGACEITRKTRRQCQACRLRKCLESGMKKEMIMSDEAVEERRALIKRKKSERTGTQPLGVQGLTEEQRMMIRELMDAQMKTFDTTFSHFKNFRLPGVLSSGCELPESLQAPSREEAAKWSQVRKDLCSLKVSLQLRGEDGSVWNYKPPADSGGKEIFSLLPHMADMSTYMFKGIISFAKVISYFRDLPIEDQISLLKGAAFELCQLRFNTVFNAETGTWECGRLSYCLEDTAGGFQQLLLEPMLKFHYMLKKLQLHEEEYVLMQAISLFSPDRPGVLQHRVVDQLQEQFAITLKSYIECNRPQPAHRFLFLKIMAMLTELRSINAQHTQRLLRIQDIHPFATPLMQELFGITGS

[11] = AUC (0 to t) in mouse at 30 mg/kg, po administered as single dose by HPLC-MS analysis; type: ADME, organism-based; conditions: in vivo

T1 sequence (P29317 whole entry): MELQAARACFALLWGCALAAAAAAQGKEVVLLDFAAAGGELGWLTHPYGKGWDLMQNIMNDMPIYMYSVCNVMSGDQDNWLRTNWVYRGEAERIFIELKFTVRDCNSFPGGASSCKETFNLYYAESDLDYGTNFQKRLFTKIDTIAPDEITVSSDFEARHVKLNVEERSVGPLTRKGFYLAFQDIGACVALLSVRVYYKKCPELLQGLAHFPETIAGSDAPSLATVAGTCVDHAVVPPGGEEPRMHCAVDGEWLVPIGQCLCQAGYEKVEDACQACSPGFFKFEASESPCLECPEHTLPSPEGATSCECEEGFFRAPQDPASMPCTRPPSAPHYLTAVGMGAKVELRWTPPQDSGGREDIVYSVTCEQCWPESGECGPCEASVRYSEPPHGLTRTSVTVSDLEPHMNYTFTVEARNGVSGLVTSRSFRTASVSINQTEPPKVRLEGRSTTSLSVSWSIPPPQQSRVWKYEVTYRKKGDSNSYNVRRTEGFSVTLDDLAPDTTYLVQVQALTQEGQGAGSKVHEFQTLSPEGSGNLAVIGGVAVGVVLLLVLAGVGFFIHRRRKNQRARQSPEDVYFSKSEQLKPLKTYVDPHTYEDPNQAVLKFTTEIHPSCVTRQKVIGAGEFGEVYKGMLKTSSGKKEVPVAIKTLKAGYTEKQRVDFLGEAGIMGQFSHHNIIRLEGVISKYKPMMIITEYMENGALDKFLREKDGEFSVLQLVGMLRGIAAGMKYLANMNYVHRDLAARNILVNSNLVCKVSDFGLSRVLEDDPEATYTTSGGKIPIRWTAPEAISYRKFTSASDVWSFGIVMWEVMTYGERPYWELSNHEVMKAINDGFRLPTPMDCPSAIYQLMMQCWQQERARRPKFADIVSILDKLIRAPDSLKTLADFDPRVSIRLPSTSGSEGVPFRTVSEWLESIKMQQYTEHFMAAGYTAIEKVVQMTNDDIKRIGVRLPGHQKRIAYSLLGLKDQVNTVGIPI

- inhibition (Ephrin type-A receptor 2 [1]): inactive
SMILES: CSCC[C@H](NC(=O)CC[C@@H](C)[C@H]1CC[C@H]2[C@@H]3CC=C4C[C@@H](O)CC[C@]4(C)[C@H]3CC[C@]12C)C(=O)O

- inhibition (Ephrin type-A receptor 2 [1]): inactive
SMILES: COC(=O)[C@H](Cc1c[nH]c2ccccc12)NC(=O)CC[C@@H](C)[C@H]1CC[C@H]2[C@@H]3CC=C4C[C@@H](O)CC[C@]4(C)[C@H]3CC[C@]12C

- IC50 (Ephrin type-A receptor 2 [2]): > 100 µM
SMILES: C[C@H](CCC(=O)N[C@@H](CO)C(=O)O)[C@H]1CC[C@H]2[C@@H]3CC=C4C[C@@H](O)CC[C@]4(C)[C@H]3CC[C@]12C

- inhibition (Ephrin type-A receptor 2 [1]): inactive
SMILES: C[C@H](CCC(=O)NCC(=O)O)[C@H]1CC[C@H]2[C@@H]3CC=C4C[C@@H](O)CC[C@]4(C)[C@H]3CC[C@]12C

SMILES: C[C@H](CCC(=O)N[C@@H](Cc1c[nH]c2ccc(O)cc12)C(=O)O)[C@H]1CC[C@H]2[C@@H]3CC=C4C[C@@H](O)CC[C@]4(C)[C@H]3CC[C@]12C
- Activity [3]: Non-toxic

- IC50 (Ephrin type-A receptor 2 [2]): > 100 µM
SMILES: C[C@H](CCC(=O)N[C@@H](Cc1ccccc1)C(=O)O)[C@H]1CC[C@H]2[C@@H]3CC=C4C[C@@H](O)CC[C@]4(C)[C@H]3CC[C@]12C

SMILES: C[C@H](CCC(=O)N[C@H](CC(=O)O)Cc1c[nH]c2ccccc12)[C@H]1CC[C@H]2[C@@H]3CC[C@@H]4C[C@H](O)CC[C@]4(C)[C@H]3CC[C@]12C
- remaining at 1 h, 1 µM [4]: 56%
- solubility kinetic at 2 h [5]: 31.8 µM (≈ 18.3 µg/mL)
- EC50 [6]: 4 µM
- logD at 4 h [7]: 4.9
- Cmax [8]: 14 nM
- remaining at 24 h, 1 µM [9]: 98.3%
- Activity [10]: 30%
- AUC(0-t) [11]: 21.2 ng·h/mL

SMILES: C[C@H](CCC(=O)O)[C@H]1CC[C@H]2[C@@H]3CC=C4C[C@@H](O)CC[C@]4(C)[C@H]3CC[C@]12C
- IC50 (Ephrin type-A receptor 2 [2]): 39.8 µM
